Assay results taken from the NIST ThermoML archive (doi:10.1021/je800110r).

Details: Liquid, Vibrating tube method

CCCCCCCCCC [decane]
Details | mass density [kg/m3]
293.15 K, 34214 kPa | 753.1
293.15 K, 34239 kPa | 753.1
293.15 K, 34259 kPa | 753.1
293.15 K, 34285 kPa | 753.1
293.15 K, 34303 kPa | 753.1
293.16 K, 19215 kPa | 743.7
293.16 K, 19235 kPa | 743.6
293.16 K, 19274 kPa | 743.8
293.16 K, 19292 kPa | 743.6
293.16 K, 19437 kPa | 743.9
293.16 K, 33877 kPa | 753
303.14 K, 364 kPa | 722.4
303.14 K, 380 kPa | 722.3
303.14 K, 402 kPa | 722.5
303.14 K, 424 kPa | 722.6
303.14 K, 441 kPa | 722.6
303.14 K, 462 kPa | 722.5
303.14 K, 488 kPa | 722.6
303.14 K, 520 kPa | 722.6
303.14 K, 547 kPa | 722.7
303.14 K, 571 kPa | 722.7
303.14 K, 602 kPa | 722.8
303.14 K, 632 kPa | 722.7
303.14 K, 677 kPa | 722.6
303.14 K, 720 kPa | 722.8
303.14 K, 760 kPa | 722.8
303.14 K, 810 kPa | 722.9
303.14 K, 862 kPa | 723
303.14 K, 904 kPa | 723
303.14 K, 946 kPa | 723
303.14 K, 997 kPa | 723
303.14 K, 1037 kPa | 723
303.14 K, 1220 kPa | 723.2
303.14 K, 1295 kPa | 723.2
303.14 K, 1434 kPa | 723.4
303.14 K, 1467 kPa | 723.4
303.14 K, 1497 kPa | 723.4
303.14 K, 1538 kPa | 723.5
303.14 K, 1586 kPa | 723.5
303.14 K, 1619 kPa | 723.4
303.14 K, 1670 kPa | 723.5
303.14 K, 1705 kPa | 723.5
303.14 K, 1760 kPa | 723.6
303.14 K, 1816 kPa | 723.7
303.14 K, 1856 kPa | 723.7
303.14 K, 1904 kPa | 723.8
303.14 K, 1955 kPa | 723.9
303.14 K, 1986 kPa | 724
303.14 K, 2021 kPa | 723.9
303.14 K, 2067 kPa | 723.9
303.14 K, 2099 kPa | 723.9
303.14 K, 2132 kPa | 723.9
303.14 K, 2177 kPa | 724
303.14 K, 2229 kPa | 724
303.14 K, 2270 kPa | 723.9
303.14 K, 2320 kPa | 724.1
303.14 K, 2376 kPa | 724.2
303.14 K, 2415 kPa | 724.1
303.14 K, 2455 kPa | 724.1
303.14 K, 2518 kPa | 724.3
303.14 K, 2560 kPa | 724.3
303.14 K, 2611 kPa | 724.3
303.14 K, 2680 kPa | 724.4
303.14 K, 2736 kPa | 724.4
303.14 K, 2782 kPa | 724.5
303.14 K, 2818 kPa | 724.6
303.14 K, 2834 kPa | 724.6
303.14 K, 3457 kPa | 725
303.14 K, 3518 kPa | 725.1
303.15 K, 1065 kPa | 723
303.15 K, 1099 kPa | 723.2
303.15 K, 1144 kPa | 723.2
303.15 K, 1175 kPa | 723.2
303.15 K, 1261 kPa | 723.3
303.15 K, 1325 kPa | 723.2
303.15 K, 1363 kPa | 723.2
303.15 K, 1385 kPa | 723.3
303.15 K, 2849 kPa | 724.6
303.15 K, 2899 kPa | 724.6
303.15 K, 2942 kPa | 724.7
303.15 K, 2968 kPa | 724.7
303.15 K, 3005 kPa | 724.8
303.15 K, 3039 kPa | 724.6
303.15 K, 3070 kPa | 724.7
303.15 K, 3105 kPa | 724.8
303.15 K, 3140 kPa | 724.8
303.15 K, 3167 kPa | 724.9
303.15 K, 3207 kPa | 724.8
303.15 K, 3250 kPa | 724.9
303.15 K, 3283 kPa | 725
303.15 K, 3333 kPa | 724.9
303.15 K, 3363 kPa | 725
303.15 K, 3400 kPa | 725
303.15 K, 3487 kPa | 725.1
303.15 K, 3503 kPa | 724.9
303.15 K, 3530 kPa | 725.1
303.15 K, 3542 kPa | 725
303.15 K, 3556 kPa | 725.2
303.15 K, 3568 kPa | 725.1
303.15 K, 3587 kPa | 725.2
303.15 K, 3606 kPa | 725.2
303.15 K, 3618 kPa | 725.1
303.15 K, 3637 kPa | 725.3
303.15 K, 3655 kPa | 725.2
303.15 K, 3668 kPa | 725.4
303.15 K, 3688 kPa | 725.3
303.15 K, 3707 kPa | 725.2
303.15 K, 3720 kPa | 725.3
303.15 K, 3735 kPa | 725.3
303.15 K, 3753 kPa | 725.3
303.15 K, 3770 kPa | 725.3
303.15 K, 3790 kPa | 725.3
303.15 K, 3808 kPa | 725.3
303.15 K, 3820 kPa | 725.3
303.15 K, 3840 kPa | 725.4
303.15 K, 3855 kPa | 725.4
303.15 K, 3871 kPa | 725.3
303.15 K, 3885 kPa | 725.3
303.15 K, 3902 kPa | 725.5
303.15 K, 3916 kPa | 725.5
303.15 K, 3938 kPa | 725.5
303.15 K, 3958 kPa | 725.4
303.15 K, 3974 kPa | 725.4
303.15 K, 3988 kPa | 725.4
303.15 K, 4013 kPa | 725.5
303.15 K, 4029 kPa | 725.5
303.15 K, 4042 kPa | 725.6
303.15 K, 4059 kPa | 725.5
303.15 K, 4074 kPa | 725.5
303.15 K, 4089 kPa | 725.6
303.15 K, 4104 kPa | 725.6
303.15 K, 4122 kPa | 725.6
303.15 K, 4137 kPa | 725.5
303.15 K, 4153 kPa | 725.7
303.15 K, 4172 kPa | 725.7
303.15 K, 4188 kPa | 725.7
